# Experiments:
# A549 xenograft [1] = assay: In vivo targeting of DiR-labeled cell-derived vesicles, IVIS imaging; design: species or system mouse; details: tail vein injection, imaging 24 h postinjection
# Description: Athymic nude mice were injected with A549 cells (NSCLC, immortalized) in the right shoulder and monitored for 3-4 weeks until measurable xenograft tumors were observed. RAW cells were cultured in vitro by standard methods. Cell-derived vesicles were manufactured by the Richards lab as described above and loaded with DiR near-infrared fluorescent dye. Prepared vesicles were administered, and mice were then imaged approximately 24, 48, and 72 hours later. Mice were anesthetized for imaging using isoflurane. Epifluorescence was measured using an IVIS Spectrum In vivo Imaging System (PerkinElmer). Vesicles were labeled with DiR near-infrared fluorescent dye, which was excited at 710 nm, with emission measured at 780 nm. Fluorescent signal intensity (i.e., total radiant efficiency) within regions of interest (ROI) were quantified using Living Image software (PerkinElmer), correcting for background fluorescence using distal site ROI within the same mouse.
# RAW264.7 cells (100 million) were scraped in 40 mL of sucrose buffer solution with protease inhibitor. Vesicles were prepared as described above. The cells were labeled using DiR at 2 μM for 30 min at 37° C. Samples were injected intravenously to the mouse, through the tail vein. Approximately 1×10^11 vesicles were delivered per injection. All animal experiments were repeated three times. […]
# A549 xenograft [2] = assay: In vivo delivery of DiR-labeled M1EVs to tumor xenografts, IVIS imaging; design: species or system mouse; details: 2×10^10 vesicles, tail vein, imaging 48 and 72 h post injection
# Description: A549 cells (1×10^6) were injected subcutaneously into the interscapular region of 6-week-old athymic nude mice. The mice were monitored until palpable xenograft tumors developed greater than 200 mm3. M1EVs were generated using 100 million M1 macrophages by the procedure mentioned above. A NanoSight 300 multiple particle tracking system was used to determine the mean diameter and the concentration of MEVs. M1EVs were then labeled with the DiR near-infrared fluorescent dye. Briefly, 1 μL of 1 mM DiR was added to 199 μL of the vesicle resuspension so that the final concentration of DiR in the vesicle resuspension was 5 µM. DiR-labeled vesicles were separated from free DiR using a size exclusion PD MidiTrap column equilibrated with PBS. 100 μL of DiR-labeled M1EVs was then injected into the lateral tail vein of tumor-bearing mice. Isoflurane gas was used to anesthetize mice for imaging 72 h post injection using an IVIS Spectrum In vivo Imaging System (PerkinElmer) controlled with LivingImage software (PerkinElmer). Epifluorescence images were obtained using 710 nm excitation and 760 nm emission filters, f/stop number 4 and binning factor 4, with a 35 s exposure.
# The free dye was separated from MEVs using PD Miniprep columns. […] After the tumor xenograft reached at least 100 mm3, 2×10^10 vesicles were injected through the tail vein of each of the three different mice. […]
# M2 macrophages = assay: Uptake of M1EVs by M2 macrophages in the presence of dynasore; type: cell-based, mouse; details: Dynasore 80 μM
# Description: Dynamin activity is an integral component of both endocytosis and phagocytosis. Dynasore, a dynamin inhibitor, has been widely used to study the process of internalization of exosomes from the surface of the macrophage. […] The uptake of fluorescently labeled M1EVs by M2 BMDMs was compared in the presence and absence of dynasore. Dynasore (80 μM) was added to cultured macrophages 20 min prior to the addition of labeled vesicles. M2 macrophages were left to incubate with M1EVs for 2 h and subsequently imaged by wide-field microscopy. […] The integrated density of the fluorescence signal was calculated to compare the uptake of M1EVs by M2 macrophages. […] Similar vesicle uptake control experiments were performed in the presence of the vehicle, DMSO, at an equal concentration. There was no significant effect of DMSO on the M1EV uptake process by M2 macrophages relative to the control with no DMSO or dynasore. Macrophages are well-established phagocytotic cells.
# A549 cells = assay: A549 cell viability (alamar blue) after cisplatin-loaded A549 vesicles or free cisplatin; type: cell-based, human; details: cisplatin 3 μg
# Description: A549 cells (60 million) were used to generate vesicles for delivery. Cells were scraped from culture in 20 mL of sucrose buffer containing protease inhibitor. The cell solution was collected in a 50 mL conical tube and pelleted at 2000 rpm at 25° C. for 2 min. The solution was aspirated off, and the pellet was resuspended in 8 mL of 8.33 mM cisplatin in sucrose buffer solution or 20 mg cisplatin/8 mL sucrose buffer solution plus protease inhibitor. The cell solution was fragmented using N2 cavitation at 300 psi at 4° C. for 5 min. The resulting cell slurry was centrifuged at 4000 g for 10 min at 4° C. The supernatant from centrifugation was transferred to a 25 mL ultracentrifuge tube for 10,000 g centrifugation for 20 min at 4° C. The supernatant from the UCF tube was then transferred to a new 25 mL ultracentrifuge tube and centrifuged at 100,000 g for 60 min at 4° C. The pellet in the UCF tube was washed with 500 μL of sucrose solution, and the residual solution was pipetted out and discarded. Seven hundred fifty microliters of sucrose buffer solution was added to the UCF tube, and the pellet was resuspended via pipetting. Empty vesicles were generated in the exact same way except in the absence of cisplatin. A549 cells (30,000) were plated in each well of a 96-well plate and allowed to seed for 24 h. During that time, the growth media was exchanged for 250 μL of fresh HEK media containing either cisplatin in solution (4.17 mM), cisplatin-loaded vesicles, empty vesicles, or untreated media cisplatin solution in HEK media. The media was aspirated off. Two hundred microliters of Optimem was added followed by 20 μL of alamar blue. […] The plate was read using a FlexStation plate reader. […] Cell viability was determined using a fluorescence assay (alamar blue), where the fluorescence intensity scales with the population of live cells. […] Vesicles were then added to A549 cells in culture, and the cell proliferation was compared to cells alone and those in the presence of free cisplatin in solution at the same levels (3 μg) as were measured in the vesicle solution. […]
smiles,measurement,setting,value
CCCCCCCCCCCCCCCCCCN1/C(=C/C=C/C=C/C=C/C2=[N+](CCCCCCCCCCCCCCCCCC)c3ccccc3C2(C)C)C(C)(C)c2ccccc21.[I-] [DiR],localisation of DiR fluorescence in tumor-bearing mice,A549 xenograft [1],nonspecific accumulation
same,localisation of DiR fluorescence in tumor-bearing mice,A549 xenograft [2],nonspecific accumulation
O=C(N/N=C/c1ccc(O)c(O)c1)c1cc2ccccc2cc1O [Dynasore],effect on cell viability of macrophages,M2 macrophages,no effect on the cell viability
same,reduction in uptake of vesicles relative to the control,M2 macrophages; M1EVs with M2 macrophages 2 h,64%
"N.N.[Cl][Pt][Cl] [free cisplatin, cisplatin]",A549 cell death,A549 cells; 24 h,no apparent cell death
same,A549 cell death,A549 cells; 48 h,15%
same,A549 cell death,A549 cells; 72 h,50%

# — US20250345283A1, “MACROPHAGE-DERIVED ENGINEERED VESICLES FOR TARGETED DELIVERY AND TREATMENT” (University of Kentucky Research Foundation, priority 2020, published 2025)
